Test results published in patent US20260232644A1, “Compositions Comprising an Inhibitor of Galectin-3” (University of Liverpool, priority 2023, published 2026).
Where a name gives a salt, the structure may show the parent alone.

Experiments:
[1] = tested on: human umbilical vein endothelial cells (HUVECs); assay: Vascular cell tubule formation (angiogenesis); type: cell-based; settings: Galectin-3 2 μg/ml, compound 10 μM
Description: Matrigel matrix (50 μl) was added to 96-well plates for 60 min at 37° C. to allow gel formation. HUVEC cells (1×10^5 cells/ml in 1:1 EGM/EBM2 media) was introduced to the plates without or with galectin-3 (2 μg/ml) or different concentrations of compound inhibitors for 24 hr at 37° C. Endothelial cell tube formation was examined with Laser Microscope. The total number of branching points and the sum of the lengths of tubes were measured.

[2] = tested on: human pancreatic cancer PANC1 cells; assay: Pancreatic cancer cell adhesion to basement matrix; type: cell-based
Description: (§1) Nanty-six well plates were coated with 50 μl Matrigel (1:30 diluted in PBS) at 37° C. for 1 hour.
(§2) Cancer cells, pre-labelled with fluorescent die DiI at 37° C. for 20 minutes, were washed twice with PBS and resuspended into 3×10^4 cells/ml in serum-free medium. The matrix-coated 96-well plates were washed twice with PBS before introduction of 100μ cell suspension with different concentrations of the inhibitors or PBS/DMSO (control) for 1 hour at 37° C. The plates were washed twice with PBS before three randomly selected Field of Views (FOVs) were recorded by fluorescence microscope and number of adhesion cells were quantified by Image J.
MDAMB-231 or PANC-1 cells were seeded into 6-well plate (2×10^5 cells) and cultured at 37° C. for 24 hour. Galectin-3 CRISPR Cas9 Knockout plasmid (2 μg) and galectin-3 HDR plasmid (2 μg) was mixed with Plasmid Transfection Medium (21 μl) for 5 minutes before addition to a mixture of lipofectamine STEM Transfection Reagent (STEM00001) (1 μl) and Plasmid Transfection Medium (25 μl) for 10 minutes at room temperature. The cells in the 6-well plates were washed and introduced with the Plasmid DNA/Lipofectamine STEM Transfection Reagent complex at 37° C. for 24 hour. The culture medium was replaced with fresh antibiotics-free medium for further 24 hour before introduction of 10 μg/mL puromycin-containing medium every three days. Successful co-transfection of the CRISPR/Cas9 KO Plasmid and HDR Plasmid was confirmed by expression of red fluorescence protein of the cells. Galectin-3 knockout in the cells was further confirmed by immunoblotting.

[3] = tested on: human lung cancer H1975 cells; assay: Lung cancer cell adhesion to basement matrix; type: cell-based
Description: as §1, §2

[4] = tested on: human melanoma ACA19 cells; assay: ACA19 cell invasion through HUVECs (transwell); type: cell-based; settings: compound 20 μM, transwells
Description: (§3) HUVECs were plated at a density of 1.5×10^4 cells in 8 μm pore transwells in 24-well plate and cultured for three days to allow formation of tight monolayer. The integrity of HUVEC monolayer was confirmed by measuring TEER and only monolayers with TEER reading>800 Ω/cm^2 were used for the invasion assay. AGA19+ or SW620 cell suspension (5×10^5 cells/ml in DMEM) was introduced with 5 μl/ml fluorescent cell labelling solution DiL for 30 min at 37° C. The fluorescence labelled cells were washed twice with PBS and resuspended into 1×10^5 cells/ml in DMEM. The cancer cell suspension was then incubated with or without galectin-3 (2 μg/ml) or various concentrations of the compound inhibitors or lactose at 37° C. for 20 min before introduction to the HUVEC monolayers for 24 hr at 37° C. The cells at the upper side of the trans-well inserts were gently removed with cotton swabs. The cells migrated to the bottom side of the transwells were fixed with 2% paraformaldehyde for 10 min. The trans-well membrane was removed and placed on glass slides. After addition of fluorescence mounting medium containing DAPI, the fluorescence labelled cells on the membrane were quantified under a fluorescence microscope.

[5] = tested on: human colon cancer SW620 cells; assay: SW620 cell invasion through HUVECs (transwell); type: cell-based; settings: compound 20 μM, transwells
Description: as §3, with “The cancer cell suspension was then incubated with or without galectin-3 (2 μg/ml) or various concentrations of the compound inhibitors or lactose at 37° C. for 20 min before introduction to the HUVEC monolayers for 24 hr at 37° C.” left out

Galectin-2 = molecular target: T1, Galectin-2 (Homo sapiens, UniProt P05162); assay: Galectin-2 binding to asialofetuin ELISA; settings: Gal-2 5 μg/ml, ASF 20 μg/ml
T1 construct: made in house; host or cells: E. coli
T1 sequence (P05162 1-132): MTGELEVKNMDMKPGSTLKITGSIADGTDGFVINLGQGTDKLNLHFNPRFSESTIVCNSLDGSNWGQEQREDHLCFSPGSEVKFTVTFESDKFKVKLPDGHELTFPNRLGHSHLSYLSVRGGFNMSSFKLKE
Description: Effect of the inhibitors on galectin binding to its ligand asialo fetuin (ASF) was measured by galectin ELISA. Nanty-six well plates were coated overnight with 20 μg/ml ASF in coating buffer (15 mM Na2CO3 17 mM NaHCO3 pH 9.6.). The wells were washed twice with PBS and incubated with blocking buffer (1% BSA in PBS) for 1 hr. The supernatants were removed and replaced with 5 μg/ml recombinant human galectin without or with different concentrations of the compound inhibitors or lactose in blocking buffer for 1 hr at room temperature. The wells were washed and incubated with 1 μg/ml anti-galectin antibody for 2 hr. Following addition of HRP-conjugated secondary antibody for 1 hr, FAST OPD development solution was added for 15-20 minutes. The reaction was terminated by addition of 4M sulphuric acid. The plates were read at 492 nm (reference wavelength 595 nm) by a microplate reader.

[6] = tested on: THP-1 differentiated macrophages; assay: Galectin-3-induced TNFα secretion from macrophages (ELISA); type: cell-based; settings: Galectin-3 10 μg/ml, various concentrations
Description: Effect of the compound inhibitors on secretion of pro-inflammatory cytokines from macrophages were assessed in THP-1 monocyte differentiated macrophages. THP-1 cells were induced to differentiation into macrophages by incubation with 10 ng/ml PMA for 48 h at 37° C. The culture medium was then replaced with fresh medium without or with 10 μg/ml galectin-3 and various concentrations of the compound inhibitors for 24 h at 37° C. The culture medium was collected and the concentrations of TNFα and IL-1β in the culture medium were determined by TNFα and IL-1β ELISA.

NC1CCN(c2nc3c(cc2F)c(=O)c(C(=O)O)cn3-c2ccc(F)cc2F)C1 (centres unmarked) [Formula X, Tosufloxacin tosylate]
Inhibition of galectin-3-induced tubule numbers [1]: significant inhibition | Inhibition of galectin-3-induced vascular tubule length [1]: significant inhibition | Effect on adhesion of galectin-3 knockout (Gal3KO) PANC1 cells ([2]; CRISPR/Cas9 Gal3KO cells): lost their inhibitory effect | Effect on adhesion of non-transfected (con) PANC1 cells ([2]; control cells): significant reduction | Inhibition of PANC1 cell adhesion to matrix ([2]; different concentrations): dose-dependent inhibition | IC50 ([3]; Homo sapiens, NCI-H1975): ~5 µM | Inhibition of H1975 cell adhesion to matrix ([3]; different concentrations): dose-dependent inhibition | Inhibition of Galectin-3-mediated invasion of ACA19 cells through HUVECs [4]: significant inhibition | Inhibition of galectin-3-mediated invasion of SW620 cells through HUVECs [5]: significant inhibition | Effect on Galectin-2 binding to asialofetuin (Galectin-2): does not affect binding | Inhibition of galectin-3-induced TNFα secretion [6]: dose-dependent inhibition
